# Source: patent US10758536B2, “Method for treating shingles with N-methanocarbathymidine (N-MCT)” (priority 2015, dated 2020)
# Tests used:
# VZV [1] = test: Skin organ culture topical Assay 2: delayed treatment; assay type: cell-based, varicella-zoster virus
# Protocol: (§1) Place 36 mL deionized sterile water into small beaker with stir bar. Slowly waft 900 mg of carbopol (980 NF, Lot # CCONLCC013, Lubrizol Corp) into water, avoiding clumps. Add equal volume N-MCT in 20% hydroxypropyl-β-cyclodextrin (Sigma) at 2× to reach the desired concentration. Add 2 drops NaOH (18% solution) to attain a pH near 5.0. Store at 4° C. The 0.5% cidofovir gel was made in a similar manner except that cidofovir was dissolved in water. The DMSO vehicle was prepared by adding a 2% DMSO solution in water to the carbopol suspension at a 1:1 ratio. Hydroxypropyl-β-cyclodextrin (HPBCD) was prepared by mixing 5.0 g with 20 mL sterile water. Stock solution of N-MCT was prepared by dissolving 90 mg N-MCT in 9 mL 20% HPBCD and sonicating for 1 min.
# (§2) Human fetal skin was purchased from ABR and delivered by overnight courier on wet ice. The tissue was cleaned, disinfected in betadine and 70% ethanol, then cut into pieces approximately 1-cm^2. Each piece was inoculated with VZV-BAC-Luc strain that expresses firefly luciferase. Approximately 3 hours after inoculation, the pieces of skin were placed in NetWells above tissue culture medium and incubated overnight. The next day (Day 1) each piece of skin was soaked in D-luciferin for 45 min, and then scanned in the IVIS-50 instrument to measure Total Flux, which is a correlate of VZV pfu. The drug treatment began on Day 1 or later by spreading an aqueous gel (carbopol) containing N-MCT at concentrations of 0.05, 0.5, or 5% (see Assay 1 in Table 4 below). One group of skin was treated with cidofovir ([…] in carbopol gel) for a positive control. Each group contained 4-6 pieces of skin. The drug was applied daily until Day 5 (or other intervals), and then the skin pieces were scanned by IVIS to determine virus yield. […] The results were analyzed for statistical significance by ANOVA and Dunnett's post hoc test of multiple comparisons (GraphPad Prism).
# This assay differs from Assay 1 in that the Vehicle was prepared with 10% HPBCD, which is the solvent for the N-MCT. Refer to Assay #2 in Table 4 above. Three groups were treated on Days 1-4 and scanned on Day 5, which is the typical assay protocol. Two groups were treated after a delay of several days, which more closely reflects a clinical scenario of zoster. All treated groups received the same preparation of 0.5% N-MCT in carbopol with 10% HPBCD. VZV yield was reduced in the Vehicle group during the treatment phase, and then rebounded. This was likely due to the effects of HPBCD, which has known antiviral properties. […] In contrast, VZV yield increased until Day 5 in the group that received no treatment until after this scan. The difference between this group and the Vehicle group was notable, since they were expected to be similar.
# VZV [2] = test: SCID-Hu mouse model of VZV replication, oral dose range; assay type: in vivo, varicella-zoster virus; settings: all doses, N-MCT 5-100 mg/kg/day BID; p<0.0001, ANOVA and Dunnett
# Protocol: SCID-hu mice with human skin xenografts were infected intradermally with VZV and treated orally twice daily with vehicle, PFA (positive control), or N-MCT at 5, 10, 20, 25, 50, or 100 mg/kg/day. Virus spread was measured daily by in vivo bioluminescence imaging (IVIS). […] The results were analyzed for statistical significance by ANOVA and Dunnett's post hoc test of multiple comparisons (GraphPad Prism).
# VZV [3] = test: Skin organ culture topical Assay 1: dose dependence (carbopol gel); assay type: cell-based, varicella-zoster virus
# Protocol: as §1
# A skin organ culture model was used to evaluate N-MCT as a topical treatment for VZV. Human skin explants were inoculated with VZV by scarification and treated daily from 1-4 days post infection with N-MCT (0.05, 0.5, or 5%) or cidofovir (0.5%, positive control) in a carbopol gel.
# as §2
compound,measurement,setting,value
CC(O)COC[C@H]1O[C@@H]2O[C@H]3[C@H](O)[C@@H](O)[C@@H](O[C@H]4[C@H](O)[C@@H](O)[C@@H](O[C@H]5[C@H](O)[C@@H](O)[C@@H](O[C@H]6[C@H](O)[C@@H](O)[C@@H](O[C@H]7[C@H](O)[C@@H](O)[C@@H](O[C@H]8[C@H](O)[C@@H](O)[C@@H](O[C@H]1[C@H](O)[C@H]2O)O[C@@H]8COCC(C)O)O[C@@H]7COCC(C)O)O[C@@H]6COCC(C)O)O[C@@H]5COCC(C)O)O[C@@H]4COCC(C)O)O[C@@H]3COCC(C)O (stereo partly drawn) [hydroxypropyl-β-cyclodextrin],antiviral effect on VZV in skin organ culture,"VZV [1]; 10% in carbopol, no drug",moderate antiviral effect
"O=C(O)P(=O)(O)O [PFA, phosphonoformic acid, reference compound]",VZV yield and growth rates compared to vehicle,VZV [2],significantly reduced
"Nc1ccn(C[C@@H](CO)OCP(=O)(O)O)c(=O)n1 [cidofovir, reference compound]",VZV yield compared to vehicle,"VZV [3]; N-MCT 0.05, 0.5, 5% or cidofovir in carbopol gel, daily, p<0.0004",significantly reduced
same,"VZV replication in skin explants, topical gel","VZV [3]; N-MCT 0.05-5%, cidofovir 0.5% in carbopol gel",prevented VZV replication
same,reduction of virus yield compared to the vehicle group,"VZV [3]; all concentrations, topical carbopol gel, p=0.0004",approximately 100 fold
same,"VZV yield, treatment on Days 1-4","VZV [1]; 0.5% in carbopol QD 1-4 dpi, during and after treatment",dramatically reduced
